From patent US10821110B2, “Composite preparation, containing novel 3-(4--(benzyloxy)phenyl)hex-4-inoic acid derivative and another active ingredient, for preventing or treating metabolic diseases” (HYUNDAI PHARM CO., LTD., priority 2014, dated 2020)
Like-named read-outs stand apart in the source and are kept apart here.

Key:
[1] = system: Male Sprague Dawley rats; experiment: Oral glucose tolerance test (OGTT) 1; type: in vivo; conditions: Rattus norvegicus, 2 h; SD rats; 10 mg/kg oral; glucose 4 g/kg 30 minutes after; read-out: % AUC (reduction (%) of blood glucose AUC)
Procedure: Male Sprague Dawley rats aged 8-10 weeks old were acclimated for at least 7 days, and then only healthy animals were used for the oral glucose tolerance test (OGTT test). After fasting for 16-18 hours, five rats per group were randomly grouped and orally administered with the compounds prepared in Examples 2, 3, 4, 6, 9, 12, 14, 16, 25, 29, 36, 37, 41, 43, and 44 at a dose of 10 mg/kg each. Here, as for a non-treated group (vehicle), a solution (PEG 400/Tween 80/0.25% CMC, 5%/5%/90%, v/v/v) containing 5% polyethyleneglycol/5% tween 80/0.25% carboxymethylcelluluse (CMC) was orally administered at the same dose. Glucose (4 g/kg) was orally administered at a dose of 5 ml/kg 30 minutes after each sample was administered. Then, the blood glucose was measured by using Accu-chek active strip (Roche diagnostic Co.).

[2] = system: Male Sprague Dawley (SD) rats; experiment: Blood GLP-1 concentration increase after oral administration; type: in vivo, rat; conditions: Example 9 at 10-100 mg/kg, plasma after 20 minutes, FIG. 2
Procedure: After 20 minutes, about 0.5 ml of whole blood was collected by direct blood collection through cardiac injection, and the collected blood was immediately transferred to a sample tube treated with the dipeptidyl peptidase IV (DPPIV) inhibitor and ethylenediaminetetraacetic acid (EDTA), and placed in a container containing ice. The collected blood was centrifuged at 3600 rpm for 10 minutes to separate the plasma, and the separated plasma was measured for the plasma GLP-1 concentration through the GLP-1 ELISA kit (Millipore, USA).

[3] = system: male diet-induced obesity (DIO) mice; experiment: OGTT by co-administration with DPPIV inhibitor (sitagliptin), mouse model; type: in vivo; conditions: oral
Procedure: Here, as for a non-treated group, 5% carboxymethyl cellulose (CMC) was orally administered at the same dose. […] Each test sample and 0.5% carboxymethyl cellulase (CMC) were orally administered at 5 ml/kg.

[4] = system: Male Sprague Dawley (SD) rats; experiment: OGTT by co-administration with DPPIV inhibitor (linagliptin), SD rat model; type: in vivo; conditions: Example 9 3 mg/kg alone
Procedure: The blood glucose was measured by using Accu-chek active strip (Roche diagnostic Co.).

[5] = system: male diet-induced obesity (DIO) mice; experiment: OGTT by co-administration with sulfonylurea-based drug (glimepiride); type: in vivo, mouse; conditions: oral
Procedure: Here, as for a non-treated group, 5% carboxymethyl cellulose (CMC) was orally administered at the same dose. In addition, 10 mg/kg of glimepiride, which is well known as a sulfonylurea-based drug, was administered alone. […] The saline and test materials were orally administered at 5 ml/kg.

[6] = system: male Zucker diabetic fatty (ZDF) rats; experiment: OGTT by co-administration with biguanide-based drug (metformin), type II diabetic rat model; type: in vivo
[7] = system: Male Sprague Dawley (SD) rats; experiment: OGTT by co-administration with biguanide-based drug (metformin), SD rat model; type: in vivo
[8] = system: Male Sprague Dawley (SD) rats; experiment: OGTT by co-administration with SGLT2 inhibitor-based drug (empagliflozin); type: in vivo, rat
Procedure: The experimental results were expressed as mean and standard error (Mean±SE), and the differences between the control and the experimental groups were tested by one-way ANOVA (a Dunnett method) of “GraphPad Prism 4” software (Graphpad co., La Jolla, Calif., USA). Here, p<0.05 was considered statistically significant.

[9] = system: INS-1 cells (rat insulinoma cell line); experiment: Insulin secretion experiment; type: cell-based; conditions: 25 mM glucose
Procedure: INS-1 cells (rat insulinoma cell line) were seeded in a 24-well plate at 5×10^5 cells/well, and cultured for 48 hours. […] The amount of insulin secreted in the insulin ELISA kit (Morinaga) was measured using the supernatant of the cells after the experiment was ended (see Table 16 and FIG. 11).

[10] = system: male diet-induced obesity (DIO) mice; experiment: OGTT by co-administration with thiazolidinedione (TZD)-based drug; conditions: oral
Procedure: Here, as for a non-treated group, 5% carboxymethyl cellulose (CMC) was orally administered at the same dose. In addition, 10 mg/kg of rosiglitazone and pioglitazone, which are well known as thiazolidinedione (TZD)-based drugs, were administered alone. […] The saline and test materials were orally administered at 5 ml/kg.
After 60 minutes, glucose (4 g/kg) was orally administered at a dose of 5 ml/kg. The blood glucose was measured by using Accu-chek active strip (Roche diagnostic Co.).

[11] = molecular target: T1, human GPR40 (Homo sapiens, UniProt O14842); experiment: Activation of GPR40 protein: intracellular calcium change (Fluo-4, Flexstation 3) in transfected HEK-293 cells; type: cell-based; conditions: HEK-293 cells transfected with human GPR40
T1 construct: host or cells: HEK-293
Procedure: The activation of GPR40 protein by a novel 3-(4-(benzyloxy)phenyl)hex-4-ynoic acid derivative of the present invention was evaluated through the change in intracellular calcium concentration due to the activity of GPR40 protein. First, HEK-293 cells were transfected with human GPR40 DNA (Origene, RC218370) by using Fugene HD (Promega, E2311). […] After 24 hours, the cell culture medium was removed, and replaced with Dulbecco's Modified Eagle Medium (DMEM, 50 μl) supplemented with 1% fetal bovine serum (FBS). For the measurement of calcium concentration, 50 μL of Fluo-4 reagent (Invitrogen, F10471) was added to each well and cultured in a 37° C. incubator for 2 hours. […] Two hours after the initiation of the culture, the prepared samples were automatically injected into the cells using Flexstation 3 (Molecular Devices), and then, the change in intracellular calcium concentration was measured using SoftMax®Pro software for 120 seconds. Here, for a non-treated group, dimethylsulfoxide (DMSO) was injected into the cells to measure the change in calcium concentration. The GPR40 protein activity was calculated from the measured calcium concentration result values using equation 1 below, and the GPR40 activity (EC50 value) by the samples was obtained. […] GPR 40 activity=(intracellular calcium concentration increased by the sample)/(intracellular calcium concentration of the non-treated group)×100 [Equation 1]

[12] = intracellular calcium, read-out: EC50
[13] = values in text, read-out: concentration activating the GPR40 protein by 50% (EC50)

T1 sequence (O14842 whole entry): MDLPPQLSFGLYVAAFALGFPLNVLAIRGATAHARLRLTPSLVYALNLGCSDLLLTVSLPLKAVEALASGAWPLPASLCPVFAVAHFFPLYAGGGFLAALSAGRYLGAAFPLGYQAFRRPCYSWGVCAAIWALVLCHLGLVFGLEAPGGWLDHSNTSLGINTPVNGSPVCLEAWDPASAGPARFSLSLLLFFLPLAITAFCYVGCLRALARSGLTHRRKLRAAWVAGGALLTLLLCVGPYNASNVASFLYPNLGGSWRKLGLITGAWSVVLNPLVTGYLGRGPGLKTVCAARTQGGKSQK

CC#C[C@@H](CC(=O)O)c1ccc(OCc2cccc(C3=CCC4(CC3)OCCO4)c2)cc1 [Example 9, L-lysine (3S)-3-(4-(3-(1,4-dioxaspiro[4.5]dec-7-en-8-yl)benzyloxy)phenyl)hex-4-ynoate]
inhibition in vivo at 10 mg/kg [1]: 24.7%
blood GLP-1 concentration compared with the glucose treated group (Veh.) [2]: increased the blood GLP-1 concentration
Reduction (%) of blood glucose AUC ([3]; Example 9 30 mg/kg alone): 10.1%
Reduction (%) of blood glucose AUC ([3]; Example 9 100 mg/kg alone): 15.4%
Reduction (%) of blood glucose AUC [4]: 14.8%
Reduction (%) of blood glucose AUC ([5]; Example 9 10 mg/kg alone): 9.1%
Reduction (%) of blood glucose AUC ([5]; Example 9 30 mg/kg alone): 11.4%
Reduction (%) of blood glucose AUC ([5]; Example 9 100 mg/kg alone): 12.7%
Reduction (%) of blood glucose AUC ([6]; oral, Example 9 1 mg/kg alone): 34.2%
Reduction (%) of blood glucose AUC ([6]; oral, Example 9 3 mg/kg alone): 40.9%
Reduction (%) of blood glucose AUC ([6]; oral, Example 9 10 mg/kg alone): 37.8%
Reduction (%) of blood glucose AUC ([7]; Example 9 3 mg/kg alone): 14.5%
Reduction (%) of blood glucose AUC ([8]; Example 9 3 mg/kg alone): 14.8%
Insulin ([9]; Example 9 0.01 μM alone): 99 ng/mL
Reduction (%) of blood glucose AUC ([10]; Example 9 10 mg/kg alone): 24.9%
Reduction (%) of blood glucose AUC ([10]; Example 9 30 mg/kg alone): 20.2%

CCC1=C(C)CN(C(=O)NCCc2ccc(S(=O)(=O)NC(=O)N[C@H]3CC[C@H](C)CC3)cc2)C1=O [Glimepiride, glimepiride, reference compound]
Reduction (%) of blood glucose AUC ([5]; glimepiride 10 mg/kg alone): 44.6%

OC[C@H]1O[C@@H](c2ccc(Cl)c(Cc3ccc(O[C@H]4CCOC4)cc3)c2)[C@H](O)[C@@H](O)[C@@H]1O [Empagliflozin, empagliflozin]
Reduction (%) of blood glucose AUC ([8]; empagliflozin 1 mg/kg alone): 6.5%
Reduction (%) of blood glucose AUC ([8]; empagliflozin 3 mg/kg alone): 9.2%
Reduction (%) of blood glucose AUC ([8]; empagliflozin 10 mg/kg alone): 29.5%

CC#C[C@@H](CC(=O)O)c1ccc(OCc2ccc(CN3CCN(c4ccc(OCCCS(C)(=O)=O)cc4)CC3)cc2)cc1 [Example 36, (S)-3-(4-(4-((4-(4-(3-(methylsulfonyl)propoxy)phenyl)piperazin-1-yl)methyl)benzyloxy)phenyl)hex-4-ynoic acid]
EC50 [11, 12]: > 300 nM
inhibition in vivo at 10 mg/kg [1]: 22.6%

CC#CC(CC(=O)O)c1ccc(OCc2ccc(CN3CCc4ccccc4C3)cc2)cc1 (stereo not drawn) [Example 12, 3-(4-(4-((3,4-dihydroisoquinolin-2(1H)-yl)methyl)benzyloxy)phenyl)hex-4-ynoic acid]
EC50 [11, 12]: < 200 nM
EC50 [11, 13]: ≤ 200 nM
inhibition in vivo at 10 mg/kg [1]: 31%

CCc1ccc(CCOc2ccc(CC3SC(=O)NC3=O)cc2)nc1 (stereo not drawn) [Pioglitazone, pioglitazone, reference compound]
Reduction (%) of blood glucose AUC ([10]; pioglitazone 10 mg/kg alone): 27.9%

CC#C[C@@H](CC(=O)O)c1ccc(OCc2ccc(CN3CCN(c4nc5ccccc5s4)CC3)cc2)cc1 [Example 43, (S)-3-(4-(4-((4-(benzo[d]thiazol-2-yl)piperazin-1-yl)methyl)benzyloxy)phenyl)hex-4-ynoic acid]
EC50 [11, 12]: > 300 nM
inhibition in vivo at 10 mg/kg [1]: 21.2%

CC#CC(CC(=O)O)c1ccc(OCc2cccc(C3=CCC4(CC3)OCCO4)c2)cc1 [Example 2, L-lysine 3-(4-(3-(1,4-dioxaspiro[4.5]dec-7-en-8-yl)benzyloxy)phenyl)hex-4-ynoate]
EC50 [11, 12]: > 300 nM
inhibition in vivo at 10 mg/kg [1]: 17.2%

COc1ccc(Cl)cc1C(=O)NCCc1ccc(S(=O)(=O)NC(=O)NC2CCCCC2)cc1 [Glibenclamide, glibenclamide]
Insulin ([9]; glibenclamide 0.1 μM alone, vehicle 58): 73 ng/mL
Insulin ([9]; glibenclamide 1 μM alone): 72 ng/mL

CC#CC(CC(=O)O)c1ccc(OCc2ccc(CN3CCc4cc(OC)ccc4C3)cc2)cc1 (stereo not drawn) [Example 16, 3-(4-(4-((6-methoxy-3,4-dihydroisoquinolin-2(1H)-yl)methyl)benzyloxy)phenyl)hex-4-ynoic acid]
EC50 [11, 12]: > 300 nM
inhibition in vivo at 10 mg/kg [1]: 21.1%

CC#CC(CC(=O)O)c1ccc(OCc2ccc(CN3CC=C(c4ccccc4)CC3)cc2)cc1 (stereo not drawn) [Example 14, 3-(4-(4-((4-phenyl-5,6-dihydropyridin-1(2H)-yl)methyl)benzyloxy)phenyl)hex-4-ynoic acid]
EC50 [11, 12]: < 200 nM
EC50 [11, 13]: ≤ 200 nM
inhibition in vivo at 10 mg/kg [1]: 27.7%

CN(C)C(=N)N=C(N)N [Metformin, metformin]
Reduction (%) of blood glucose AUC ([6]; metformin 50 mg/kg alone): 21.7%
Reduction (%) of blood glucose AUC ([7]; metformin 10 mg/kg alone): 3.9%
Reduction (%) of blood glucose AUC ([7]; metformin 50 mg/kg alone): 7.3%
Reduction (%) of blood glucose AUC ([7]; metformin 100 mg/kg alone): 10.0%

CC#C[C@@H](CC(=O)O)c1ccc(OCc2ccc(CN3CCN(c4ncc(CCC)cn4)CC3)cc2)cc1 [Example 44, (S)-3-(4-(4-((4-(5-propylpyrimidin-2-yl)piperazin-1-yl)methyl)benzyloxy)phenyl)hex-4-ynoic acid]
EC50 [11, 12]: > 300 nM
inhibition in vivo at 10 mg/kg [1]: 22.8%

CC#C[C@@H](CC(=O)O)c1ccc(OCc2ccc(CN3CCCc4ccccc43)cc2)cc1 [Example 41, sodium (S)-3-(4-(4-((3,4-dihydroquinolin-1(2H)-yl)methyl)benzyloxy)phenyl)hex-4-ynoate]
EC50 [11, 12]: > 300 nM
inhibition in vivo at 10 mg/kg [1]: 23.7%
